Assay: xn = mol fraction of the nth substance listed
Settings: 101 kPa, Liquid; for viscosity: Capillary tube (Ostwald / Ubbelohde) method; for mass density: Vibrating tube method

CCCCn1cc[n+](C)c1.[Cl-] [1-butyl-3-methylimidazolium chloride] + O
Settings	mass density, 298.15 K [kg/m3]	mass density, 313.15 K [kg/m3]	mass density, 328.15 K [kg/m3]	mass density, 343.15 K [kg/m3]	viscosity, 298.15 K [mPa·s]	viscosity, 313.15 K [mPa·s]	viscosity, 328.15 K [mPa·s]	viscosity, 343.15 K [mPa·s]
x2 = 0.5666	1081	1072	1063.4	1054.7	123.5	56.63	30.04	17.69
x2 = 0.607	1079.9	1070.8	1062	1053.1	72.16	35.36	19.75	12.2
x2 = 0.6933	1076.5	1067.2	1058.1	1048.8	35.66	18.94	11.32	7.386
x2 = 0.7698	1071.1	1061.5	–	–	18.08	10.11	–	–
x2 = 0.7699	–	–	1052.1	1042.4	–	–	6.474	4.419
x2 = 0.8279	1063.8	1054.1	1044.5	1034.4	10.19	6.125	4.019	2.858
x2 = 0.8674	1057.1	1047.1	1037.3	1027.1	6.628	4.123	2.795	2.043
x2 = 0.9194	1042.3	1032.8	1023.3	1013.1	3.543	2.311	1.635	1.228
x2 = 0.9625	1022.3	1014	1006.1	996.7	1.886	1.297	0.955	0.741
x2 = 0.9885	1005.2	999.1	989.3	979.6	1.175	0.955	0.753	0.652

CCCCCCn1cc[n+](C)c1.[Cl-] [1-hexyl-3-methylimidazolium chloride] + O
Settings	mass density, 298.15 K [kg/m3]	mass density, 313.15 K [kg/m3]	mass density, 328.15 K [kg/m3]	mass density, 343.15 K [kg/m3]	viscosity, 298.15 K [mPa·s]	viscosity, 313.15 K [mPa·s]	viscosity, 328.15 K [mPa·s]	viscosity, 343.15 K [mPa·s]
x2 = 0	1039.67	1031.13	1022.69	1014.34	18089	3429	942.1	339.5
x2 = 0.1274	1040.45	1031.89	1023.44	1015.06	7667	1746	516.4	207.4
x2 = 0.3173	1040.7	1032.22	1023.8	1015.5	1020	393.5	165.7	79.07
x2 = 0.3906	1040.95	1032.63	1024.3	1015.77	499.4	188.9	86.76	45.52
x2 = 0.5594	1041.4	1032.76	1024.14	1015.4	201.2	88.11	44.87	25.37
x2 = 0.7127	1038.77	1029.8	1020.75	1011.45	60.75	30.04	16.83	10.39
x2 = 0.783	1035.72	1026.67	1017.17	1007.71	33.79	17.49	10.17	6.542
x2 = 0.8935	1025.28	1016.2	1006.79	997	8.688	5.191	3.367	2.358
x2 = 0.9417	1018.17	1009.43	1000.13	990.26	3.505	2.323	1.649	1.224

CCCCCCCC[n+]1ccn(C)c1.[Cl-] [1-methyl-3-octylimidazolium chloride] + O
Settings	mass density, 298.15 K [kg/m3]	mass density, 313.15 K [kg/m3]	mass density, 328.15 K [kg/m3]	mass density, 343.15 K [kg/m3]	viscosity, 298.15 K [mPa·s]	viscosity, 313.15 K [mPa·s]	viscosity, 328.15 K [mPa·s]	viscosity, 343.15 K [mPa·s]
x2 = 0	1008.82	1000.2	991.67	983.24	20883	4066	1091	387.2
x2 = 0.1484	1009.61	1000.98	992.42	983.87	5570	1470	484.6	200.1
x2 = 0.203	1009.99	1001.35	992.77	984.21	3815	1097	393.5	165.4
x2 = 0.4076	1011.83	1003.2	994.4	985.6	1325	387.9	170.8	84.75
x2 = 0.5334	1012.7	1003.76	994.81	985.96	921.1	337.9	147.7	74.31
x2 = 0.6807	1012.37	1003.16	993.98	984.8	433	175.5	83.26	44.23
x2 = 0.8185	1009.16	1000.09	990.76	981.11	193.4	83.87	42.22	24.22
x2 = 0.8803	1006.63	997.6	988.16	978.39	80.77	38.02	20.45	12.17
x2 = 0.9307	1003.69	995.12	985.89	976.15	22.48	13.27	8.18	5.33
x2 = 0.9635	1001.1	993.58	985.06	975.71	5.71	4.25	3.3	2.65
